A melting point compilation (Tetko et al.; mined from patent text by program, amines drawn as free bases though some values may be those of a salt)

Compound	melting point
CC(C)COc1c(-c2ccc(S(C)(=O)=O)cc2)cnn(CC(F)(F)F)c1=O	108 to 110 °C
Cc1ccccc1C(=O)CC(C#N)C#N	92 to 93 °C
CC(=O)c1ccc2c(c1)C(c1ccccc1F)=NC(C)C(=O)N2C (stereo not given)	65 °C
COc1cc2c(c(Cl)c1Cl)C(=O)CCC2	132 °C
CC1(C)Nc2ccccc2-c2c([N+](=O)[O-])cnn21	193 to 195 °C
O=C(O)CN1C(=O)C(=Cc2ccc(OCCc3ccccc3)c(OCc3ccccc3)c2)SC1=S	198 to 201 °C
Cc1cc(-n2ccnc2)c2cccc(OCc3c(Cl)ccc(S(=O)(=O)N4CCC[C@H]4C(=O)NCCN4CCOCC4)c3Cl)c2n1	100 °C
C/C(=N\O)c1ccc(SSc2ccc(/C(C)=N/O)cn2)nc1	200 to 201 °C
O=C(c1cc(=O)c2cc(O)ccc2[nH]1)N1CCC(Cc2ccc(F)cc2)CC1	190 °C
CC(C)(Cc1ccccc1)OC(=O)Nc1ccc(-c2ncn(-c3ccc(OC(F)(F)F)cc3)n2)cc1	153 to 155 °C
N#CC1Sc2ccccc2N1C(=O)c1ccc(F)cc1 (stereo not given)	150 to 151 °C
CCOC(=O)C(CC(=O)c1cccc(Cl)c1)(NC(C)=O)C(=O)OCC	84 to 86 °C
CC1(C)c2ccccc2N2Cc3cc(N=Nc4ccc([N+](=O)[O-])cc4)ccc3OC21C (stereo not given)	156 °C
COC(=O)c1ccc(OC(=O)c2ccccc2C(=O)Oc2ccc(C(=O)OC)cc2)cc1	123 to 125 °C
COc1ccccc1C1(Cl)C(=O)Nc2cc(C)c(Cl)cc21 (stereo not given)	254 to 256 °C
CC(C(=O)O)c1ccc2c(c1)C(=O)c1cc(Cl)ccc1CS2 (stereo not given)	128 to 131 °C
CSC[C@H](NC(=O)C(C)(C)SC)C(=O)O	120 to 121 °C
CCOC(=O)c1cc(=O)c(Sc2ccc(OC)cc2)co1	90 to 92 °C
O=C(O)c1cccc(Nc2nccc(-c3cccnc3)n2)c1	291 to 295 °C
CCOC(=O)c1ncn(-c2ccc(C(F)(F)F)cc2N)c1C	185 to 186 °C
COc1ccc(-c2cc(C(F)F)nn2-c2ccc(S(N)(=O)=O)cc2)cc1	133 to 135 °C
COc1ccc2c(Nc3cccc(CCO)c3)c3ccccc3nc2c1	186 to 188 °C
CCCC(c1cc(C(=O)O)ccc1OCc1ccc(Br)cc1)n1ccnc1 (stereo not given)	187 to 189 °C
O=C1CC(C(=O)NC(Cc2c[nH]cn2)C(=O)OCc2ccccc2)N1 (stereo not given)	196 to 199 °C
O=C(c1ccc(C2=CCCCC2)cc1)N1Cc2cccn2Cc2ccccc21	66 °C

Compound	melting point
COCC(C)(COC)C(=O)O[C@H]1C[C@H](O)C=C2C=C[C@H](C)[C@H](CC[C@@H]3C[C@@H](O)CC(=O)O3)[C@H]21	122 to 123 °C
CCC(C)N1CC(C)=CC2=C1N1CN(OC)C=C1N=N2 (stereo not given)	157 to 159 °C
CCCCNC(=O)C1Cc2c([nH]c3ccccc23)C(c2ccc3c(c2)OCO3)N1C(=O)C=Cc1ccccc1 (stereo not given)	114 to 117 °C
COCCc1ccc(OCC(O)C(C)(C)[N+](=O)[O-])cc1 (stereo not given)	92 to 94 °C
CN(Cc1cc2c3c(c1)c(=O)c(C(=O)NCc1ccc(F)cc1)cn3CC(=O)N2C)C[C@@H](O)c1nccs1	156 to 158 °C
O=C(Nc1cccc(C2CN3CCSC3=N2)c1)c1ccc(Cl)nc1 (stereo not given)	135 to 138 °C
O=C(Cn1nnnc1-c1cc2ccccc2o1)OCCO	131 to 135 °C
Cc1cc(C)n2nc(SCc3ccccc3)c(C#N)c2n1	140 °C
c1cc2c(c3c1CCN3)OCCO2	130 to 132 °C
O=c1[nH]c2cc(Cl)cc(Cl)c2c(=O)n1Cc1cccc(Br)c1	161 to 165 °C
COc1ccccc1C(CCNC(C)(C)C)c1cc(Cl)ccc1OC (stereo not given)	> 260 °C
CN(C)CCOc1ccc2c(c1)OCC21C(=O)Nc2ccccc21 (stereo not given)	95 to 97 °C
CCCc1nccn1S(=O)(=O)c1c[nH]cn1	163 to 164 °C
CCC1(O)CC(=O)OCc2c1cc1n(c2=O)Cc2cc3cccc(F)c3nc2-1 (stereo not given)	> 250 °C
O=C(C#Cc1ccc(CCN2CCCC2)cc1)Nc1ccc(Cl)cc1	153 to 154 °C
CC(=O)C(=[N+]=[N-])C(=O)CCCCCCCCCc1ccc(S(=O)(=O)Cl)cc1	48.5 to 50 °C
O=[N+]([O-])c1cc(S(=O)(=O)Oc2ccccc2)ccc1Cl	71 °C
CCC(CC)Nc1c([N+](=O)[O-])cc(CC=NO)c(C(C)C)c1[N+](=O)[O-]	114 to 115 °C
NN1CC1c1ccccc1 (stereo not given)	60 °C
CC(=O)N(O)C(C)/C=C/c1cccc(Oc2ccc(Cl)cc2)c1 (stereo not given)	86 to 87 °C
CS(=O)(=O)c1ccc(-c2oncc2C(=O)C2CC2)cc1Cl	148 to 150 °C
Cc1ccc(C(=O)n2nc(Nc3cccc(OCC#N)c3)nc2N)cc1	236 to 241 °C
O=C1c2ccccc2-n2cnc(Cl)c2[C@@H]2CCN12	210 to 214 °C
C[C@]12C[C@H](c3ccc(OCCCCCCCl)cc3)[C@@H]3c4ccc(O)cc4CC[C@H]3[C@@H]1CC[C@@H]2O	176 °C
CSC(=NC(=O)OC(C)(C)C)NC(=O)OC(C)(C)C	123 to 124 °C
